# According to patent publication US12653911B2, “Stimuli-responsive nanoparticles for biomedical applications” (The Brigham and Women's Hospital, Inc., priority 2016, dated 2026):
# Assay: Acid-base titration of the polymers (pKa)
# Assay type: physicochemical
# Protocol: (§1) Meo-PEG-b-P(DPA-co-GMA-TEPA-C14) was dispersed in deionized water, and a concentrated HCl aqueous solution was added until complete dissolution of the copolymer (1 mg/mL). Subsequently, 1 M NaOH aqueous solution was added in 1-5 μL increments. After each addition, the solution was constantly stirred for 3 min, and the solution pH was measured using a pH meter.
# as §1, with “Meo-PEG-b-P(DPA-co-GMA-Rn)” for “Meo-PEG-b-P(DPA-co-GMA-TEPA-C14)”, “until” for “until complete dissolution of”, “copolymer was completely dissolved” for “copolymer”
# Subsequently, 1 M NaOH aqueous solution was added in 1-5 μL increments. After each addition, the solution was constantly stirred for 3 min, and the solution pH was measured using a pH meter.
Substance,pKa,pKa of polymer
Meo-PEG-b-P(DPA-co-GMA) [PDPA70-GMA5],6.26,
Meo-PEG-b-P(DPA-co-GMA) [PDPA100-GMA5],6.21,
Meo-PEG-b-P(DPA-co-GMA) [PDPA60-GMA5],6.29,
Meo-PEG-b-P(DPA-co-GMA) [PDPA50-GMA5],6.31,
Meo-PEG113-b-P(DPA80-co-GMA5) [PDPA80-GMA5],6.24,
Meo-PEG-b-P(DPA-co-GMA) [PDPA40-GMA5],6.34,
Meo-PEG-b-P(DPA-co-GMA-R10),6.31,

# Results, then the substance that gave them:
pKa,pKa of polymer,Substance
,6.31,Meo-PEG-b-P(DPA-co-GMA-TEPA-C14) [PDPA50]
,6.34,Meo-PEG-b-P(DPA-co-GMA-TEPA-C14) [PDPA40]
,6.29,Meo-PEG-b-P(DPA-co-GMA-TEPA-C14) [PDPA60]
,6.26,Meo-PEG-b-P(DPA-co-GMA-TEPA-C14) [PDPA70]
